From PMC9086285, “Catalytic Features and Thermal Adaptation Mechanisms of a Deep Sea Bacterial Cutinase-Type Poly(Ethylene Terephthalate) Hydrolase” (Frontiers in Bioengineering and Biotechnology, 2022)

Tests used:
IsPETase = target: T1, IsPETase (Pseudideonella sakaiensis, UniProt A0A0K8P6T7); test: inhibition of mp-PET hydrolysis, HPLC of products; assay type: biochemical; details: 1 mM MHET, mp-PET substrate, 40°C, pH 8.5, 10 mM CaCl2, 72 h; product inhibition
T1 construct: gene ISF6_4831; purified enzyme; expression construct not described
T1 sequence (A0A0K8P6T7 28-290): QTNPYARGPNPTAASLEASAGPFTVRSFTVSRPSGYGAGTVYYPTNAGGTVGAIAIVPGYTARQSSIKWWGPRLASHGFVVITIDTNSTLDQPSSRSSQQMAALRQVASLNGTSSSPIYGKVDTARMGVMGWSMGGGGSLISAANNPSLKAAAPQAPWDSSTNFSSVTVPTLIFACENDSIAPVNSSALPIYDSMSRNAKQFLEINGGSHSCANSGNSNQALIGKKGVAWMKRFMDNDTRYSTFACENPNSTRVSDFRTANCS

ICCG = target: T2, ICCG (unidentified prokaryotic organism, UniProt G9BY57, Y127G/D238C/F243I/S283C); test: inhibition of mp-PET hydrolysis, HPLC of products; assay type: biochemical; details: 1 mM MHET, mp-PET substrate, 40°C, pH 8.5, 10 mM CaCl2, 72 h; product inhibition
T2 construct: quadruple variant of LCC; only D238C/S283C given, the other two changes (F243I, Y127G) known from Tournier et al. 2020; expression construct not described; PDB 6THT given as the ICCG structure used for modelling
T2 sequence (G9BY57 36-293 Y127G/D238C/F243I/S283C): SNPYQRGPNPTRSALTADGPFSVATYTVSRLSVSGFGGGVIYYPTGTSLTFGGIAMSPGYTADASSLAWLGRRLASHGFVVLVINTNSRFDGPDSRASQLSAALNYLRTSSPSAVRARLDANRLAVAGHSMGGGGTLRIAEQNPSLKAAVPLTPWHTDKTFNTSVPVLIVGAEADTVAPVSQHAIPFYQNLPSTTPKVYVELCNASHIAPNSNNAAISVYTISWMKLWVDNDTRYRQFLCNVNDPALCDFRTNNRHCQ

## O=C(O)c1ccc(C(=O)OCCO)cc1 [MHET]
IsPETase
  inhibition at 1 mM: in the presence of MHET, significant inhibitory effects were detected toward IsPETase and ICCG
ICCG
  inhibition at 1 mM: in the presence of MHET, significant inhibitory effects were detected toward IsPETase and ICCG
